Biological target: T1, hβ1AR (human β1-adrenergic receptor), WT S49 R389 (Homo sapiens, UniProt P08588)
T1 construct: gene ADRB1; full-length WT (S49, R389) with HA signal peptide, N-terminal MYC tag and C-terminal FLAG tag (pFT-SMMF); N-terminal part partly cleaved at R31/L32 in cells
Assay: radioligand saturation binding, membranes of stable HEK293i cells

T1 sequence (P08588 whole entry G389R): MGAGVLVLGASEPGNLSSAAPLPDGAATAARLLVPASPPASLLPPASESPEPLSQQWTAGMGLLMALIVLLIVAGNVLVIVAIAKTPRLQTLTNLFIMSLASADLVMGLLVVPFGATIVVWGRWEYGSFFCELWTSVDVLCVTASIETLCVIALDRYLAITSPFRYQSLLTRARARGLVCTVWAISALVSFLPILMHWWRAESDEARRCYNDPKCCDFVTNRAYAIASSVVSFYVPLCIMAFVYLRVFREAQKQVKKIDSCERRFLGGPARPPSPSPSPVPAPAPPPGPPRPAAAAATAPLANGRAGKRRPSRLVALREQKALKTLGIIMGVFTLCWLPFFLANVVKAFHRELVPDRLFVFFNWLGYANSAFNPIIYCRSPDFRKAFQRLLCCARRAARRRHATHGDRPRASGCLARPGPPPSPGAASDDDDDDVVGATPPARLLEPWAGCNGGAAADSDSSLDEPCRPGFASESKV

Compound `CCCc1ccccc1OCC(O)CNC(C)C` (stereo not shown) [[^3H]dihydroalprenolol] has a Kd of 0.42 ± 0.04 nM.

From paper PMC11880984, “Altered O‐glycosylation of β1‐adrenergic receptor N‐terminal single‐nucleotide variants modulates receptor processing and functional activity” (The Febs Journal, 2024)
